Counter-ions that a name gives are not always drawn.
Assays:
[1] = system: Huh-7; test: XTT antiproliferative assay, Huh-7; format: cell-based; conditions: Homo sapiens, 72 h, mean ± SD
Description: (§1) All the synthesized 4-anilinoquinolinylchalcone derivatives were evaluated in vitro against two cancer cells (Huh-7 and MDA-MB-231) and a non-cancer normal fibroblast lung cell line (MRC-5) using an XTT (sodium 3′-[1-(phenylamino-carbonyl)-3,4-tetrazolium}-bis(4-methoxy-6-nitro)benzene sulfonic acid hydrate) assay. The concentration that inhibited the growth of 50% of cells (IC50) was determined from the linear portion of the curve by calculating the concentration of the tested agent that reduced absorbance in treated cells, compared to control cells, by 50%. The IC50 results of these 4-anilinoquinolinylchalcone derivatives are summarized (Table 1). […] Thus, 4a was selected as a lead compound for further mechanism studies.
(§2) Cancer cells (Huh-7, MDA-MB-231) and normal lung cells (MRC-5) were purchased from Bioresources Collection and Research Center, Taiwan. Cells were maintained in the same standard medium, grown as a monolayer in DMEM (Gibco, Miami, FL, USA), and supplemented with 10% fetal bovine serum (FBS) and antibiotics, i.e., 100 IU/mL penicillin, 0.1 mg/mL streptomycin and 0.25 μg/mL amphotericin. The culture was maintained at 37 °C with 5% CO2 in a humidified atmosphere. Cells (5 × 10^3 cells/well) were treated with tested compounds for 72 h in the medium containing 10% FBS. Cell viability was quantitated with the use of sodium 3′-[1-(phenylamino-carbonyl)-3,4-tetrazolium}-bis(4-methoxy-6-nitro)benzene sulfonic acid hydrate (XTT) colorimetric assay (Biological Industries, Beit-Haemek, Israel). XTT labeling reagent (1 mg/mL) was mixed with electron-coupling reagent, following the manufacturer’s instructions, and 50 μL of the mixture was added directly to the cells. The plates were further incubated at 37 °C for 4 h. Color was measured spectrophotometrically in a microtiter plate reader at 492 nm and used as a relative measurement of viable cell numbers. After drug treatment, the viable cell number was compared to the solvent and untreated control cell number. This information was used to determine the percent of control growth as (Abtreated/Abcontrol) × 100, where Ab represents the mean absorbance (n = 3). The concentration that killed 50% of cells (IC50) was determined from the linear portion of the curve by calculating the concentration of the agent that reduced the absorbance in treated cells, compared to control cells, by 50%.

[2] = system: MDA-MB-231; test: XTT antiproliferative assay, MDA-MB-231; format: cell-based; conditions: Homo sapiens, 72 h, mean ± SD
Description: as §1, §2

[3] = system: MRC-5; test: XTT antiproliferative assay, normal lung cells MRC-5; format: cell-based; conditions: Homo sapiens, MRC5, 72 h, mean ± SD
Description: as §1, §2

COc1ccc(C(=O)/C=C/c2cc(Nc3ccc(OCc4ccccc4)cc3)c3ccccc3n2)cc1 (as salt: salt) [Compound 4a, (E)-3-{4-{[4-(Benzyloxy)phenyl]amino}quinolin-2-yl}-1-(4-methoxyphenyl)prop-2-en-1-one]
melting point: 200 to 201 °C

COc1ccc(C(=O)/C=C/c2cc(Nc3ccc(OCc4ccccc4Cl)cc3)c3ccccc3n2)cc1 (as salt: salt) [Compound 4b, (E)-3-{4-{{4-[(2-Chlorobenzyl)oxy]phenyl}amino}quinolin-2-yl}-1-(4-methoxy - phenyl) prop-2-en-1-one]
melting point: 160 to 161 °C

COc1ccc(C(=O)/C=C/c2cc(Nc3ccc(OCc4ccccc4F)cc3)c3ccccc3n2)cc1 (as salt: salt) [Compound 4c]
melting point: 175 to 176 °C

COc1ccc(C(=O)/C=C/c2cc(Nc3ccc(OCc4cccc(Cl)c4)cc3)c3ccccc3n2)cc1 (as salt: salt) [Compound 4d, (E)-3-{4-{{4-[(3-Chlorobenzyl)oxy]phenyl}amino}quinolin-2-yl}-1-(4-methoxy-phenyl) prop-2-en-1-one]
melting point: 132 to 133 °C

COc1ccc(C(=O)/C=C/c2cc(Nc3ccc(OCc4cccc(F)c4)cc3)c3ccccc3n2)cc1 (as salt: salt) [Compound 4e, (E)-3-{4-{{4-[(3-Fluorobenzyl)oxy]phenyl}amino}quinolin-2-yl}-1-(4-methoxy-phenyl) prop-2-en-1-one]
melting point: 171 to 172 °C

COc1ccc(C(=O)/C=C/c2cc(Nc3ccc(OCc4ccc(Cl)cc4)cc3)c3ccccc3n2)cc1 (as salt: salt) [Compound 4g, (E )-3-{4-{{4-[(4-Chlorobenzyl)oxy]phenyl}amino}quinolin-2-yl}-1-(4-methoxy - phenyl)prop-2-en-1-one]
melting point: 142 to 143 °C

COc1ccc(C(=O)/C=C/c2cc(Nc3ccc(OCc4ccc(F)cc4)cc3)c3ccccc3n2)cc1 (as salt: salt) [Compound 4h, (E)-3-{4-{ {4-[ (4-Fluorobenzyl)oxy]phenyl}amino}quinolin-2-yl}-1-(4-methoxy - phenyl)prop-2-en-1-one]
melting point: 176 to 177 °C

O=C(/C=C/c1cc(Nc2ccc(OCc3ccccc3)cc2)c2ccccc2n1)c1ccc(F)cc1 (as salt: salt) [Compound 5a, (E)-3-{4-{[4-(Benzyloxy)phenyl]amino}quinolin-2-yl}-1-(4-fluorophenyl)prop-2-en-1-one]
melting point: 162 to 163 °C

COc1ccc(C(=O)/C=C/c2cc(Nc3ccc(OCc4ccccc4Cl)cc3)c3ccccc3n2)cc1 [Compound 4b, (E)-3-{4-{{4-[(2-Chlorobenzyl)oxy]phenyl}amino}quinolin-2-yl}-1-(4-methoxy - phenyl) prop-2-en-1-one]
IC50 [1]: 1.83 ± 0.22 µM | IC50 [2]: 1.59 ± 0.15 µM | IC50 [3]: > 20 µM

COc1ccc(C(=O)/C=C/c2cc(Nc3ccc(OCc4ccccc4F)cc3)c3ccccc3n2)cc1 [Compound 4c]
IC50 [1]: 0.81 ± 0.06 µM | IC50 [2]: 1.04 ± 0.04 µM | IC50 [3]: > 20 µM

COc1ccc(C(=O)/C=C/c2cc(Nc3ccc(OCc4cccc(Cl)c4)cc3)c3ccccc3n2)cc1 [Compound 4d, (E)-3-{4-{{4-[(3-Chlorobenzyl)oxy]phenyl}amino}quinolin-2-yl}-1-(4-methoxy-phenyl) prop-2-en-1-one]
IC50 [1]: 0.69 ± 0.04 µM | IC50 [2]: 0.18 ± 0.06 µM | IC50 [3]: > 20 µM

COc1ccc(C(=O)/C=C/c2cc(Nc3ccc(OCc4cccc(F)c4)cc3)c3ccccc3n2)cc1 [Compound 4e, (E)-3-{4-{{4-[(3-Fluorobenzyl)oxy]phenyl}amino}quinolin-2-yl}-1-(4-methoxy-phenyl) prop-2-en-1-one]
IC50 [1]: 1.45 ± 0.28 µM | IC50 [2]: 0.54 ± 0.11 µM | IC50 [3]: > 20 µM

COc1ccc(C(=O)/C=C/c2cc(Nc3ccc(OCc4cccc(OC)c4)cc3)c3ccccc3n2)cc1 [Compound 4f, (E)-3-{4-{{4-[(3-Methoxybenzyl)oxy]phenyl}amino}quinolin-2-yl}-1-(4-methoxy - phenyl)prop-2-en-1-one]
IC50 [1]: 1.41 ± 0.04 µM | IC50 [2]: 1.94 ± 0.52 µM | IC50 [3]: > 20 µM

COc1ccc(C(=O)/C=C/c2cc(Nc3ccc(OCc4ccc(Cl)cc4)cc3)c3ccccc3n2)cc1 [Compound 4g, (E )-3-{4-{{4-[(4-Chlorobenzyl)oxy]phenyl}amino}quinolin-2-yl}-1-(4-methoxy - phenyl)prop-2-en-1-one]
IC50 [1]: 1.31 ± 0.56 µM | IC50 [2]: 1.71 ± 0.35 µM | IC50 [3]: > 20 µM

COc1ccc(C(=O)/C=C/c2cc(Nc3ccc(OCc4ccc(F)cc4)cc3)c3ccccc3n2)cc1 [Compound 4h, (E)-3-{4-{ {4-[ (4-Fluorobenzyl)oxy]phenyl}amino}quinolin-2-yl}-1-(4-methoxy - phenyl)prop-2-en-1-one]
IC50 [1]: 1.37 ± 0.28 µM | IC50 [2]: 1.69 ± 0.21 µM | IC50 [3]: > 20 µM

O=C(/C=C/c1cc(Nc2ccc(OCc3ccccc3)cc2)c2ccccc2n1)c1ccc(F)cc1 [Compound 5a, (E)-3-{4-{[4-(Benzyloxy)phenyl]amino}quinolin-2-yl}-1-(4-fluorophenyl)prop-2-en-1-one]
IC50 [1]: 1.24 ± 0.09 µM | IC50 [2]: 1.65 ± 0.77 µM | IC50 [3]: > 20 µM

O=C(/C=C/c1cc(Nc2ccc(OCc3ccccc3Cl)cc2)c2ccccc2n1)c1ccc(F)cc1 [Compound 5b, (E)-3-{4-{{4-[(2-Chlorobenzyl)oxy]phenyl}amino}quinolin-2-yl}-1-(4-fluorophenyl) prop-2-en-1-one]
IC50 [1]: 1.24 ± 0.3 µM | IC50 [2]: 1.53 ± 0.21 µM | IC50 [3]: > 20 µM

O=C(/C=C/c1cc(Nc2ccc(OCc3ccccc3F)cc2)c2ccccc2n1)c1ccc(F)cc1 [Compound 5c, (E)-3-{4-{{4-[(2-Fluorobenzyl)oxy]phenyl}amino}quinolin-2-yl}-1-(4-fluorophenyl) prop-2-en-1-one]
IC50 [1]: 1.25 ± 0.07 µM | IC50 [2]: 1.42 ± 0.7 µM | IC50 [3]: > 20 µM

O=C(/C=C/c1cc(Nc2ccc(OCc3cccc(Cl)c3)cc2)c2ccccc2n1)c1ccc(F)cc1 [Compound 5d, (E)-3-{4-{{4-[(3-Chlorobenzyl)oxy]phenyl}amino}quinolin-2-yl}-1-(4-fluorophenyl) prop-2-en-1-one]
IC50 [1]: 1.28 ± 0.21 µM | IC50 [2]: 1.76 ± 0.13 µM | IC50 [3]: > 20 µM

O=C(/C=C/c1cc(Nc2ccc(OCc3cccc(F)c3)cc2)c2ccccc2n1)c1ccc(F)cc1 [Compound 5e, (E)-3-{4-{{4-[(3-Fluorobenzyl)oxy]phenyl}amino}quinolin-2-yl}-1-(4-fluorophenyl)prop-2-en-1-one]
IC50 [1]: 1.27 ± 0.06 µM | IC50 [2]: 1.82 ± 0.28 µM | IC50 [3]: > 20 µM

COc1cccc(COc2ccc(Nc3cc(/C=C/C(=O)c4ccc(F)cc4)nc4ccccc34)cc2)c1 [Compound 5f, (E)-1-(4-Fluorophenyl)-3-{4-{{4-[(3-methoxybenzyl)oxy]phenyl}amino}quinolin-2-yl}prop-2-en-1-one]
IC50 [1]: 1.34 ± 0.35 µM | IC50 [2]: 2.03 ± 0.14 µM | IC50 [3]: > 20 µM

O=C(/C=C/c1cc(Nc2ccc(OCc3ccc(Cl)cc3)cc2)c2ccccc2n1)c1ccc(F)cc1 [Compound 5g, (E)-3-{4-{{4-[(4-Chlorobenzyl)oxy]phenyl}amino}quinolin-2-yl}-1-(4-fluorophenyl)prop-2-en-1-one]
IC50 [1]: 1.3 ± 0.14 µM | IC50 [2]: 1.5 ± 0.77 µM | IC50 [3]: > 20 µM

O=C(/C=C/c1cc(Nc2ccc(OCc3ccc(F)cc3)cc2)c2ccccc2n1)c1ccc(F)cc1 [Compound 5h, (E)-3-{4-{{4-[(4-Fluorobenzyl)oxy]phenyl}amino}quinolin-2-yl}-1-(4-fluorophenyl)prop-2-en-1-one]
IC50 [1]: 1.29 ± 0.28 µM | IC50 [2]: 1.68 ± 0.21 µM | IC50 [3]: > 20 µM

Source: PMC10094048, “Synthesis and Anticancer Evaluation of 4-Anilinoquinolinylchalcone Derivatives” (International Journal of Molecular Sciences, 2023)
